Laboratory results reported in article PMC10299588, “Bromotyrosine-Derived Metabolites from a Marine Sponge Inhibit Pseudomonas aeruginosa Biofilms” (International Journal of Molecular Sciences, 2023).
Entries after “also recorded” stand apart in the source; their conditions may differ. Read-outs that look alike come from different tables or passages of the source.

Legend:
[1] = Stability in liver microsomes; assay type: in vitro ADME, mouse; settings: for hepatic extraction: calculated from microsomal half-life, fu = 1 assumed; for level of hepatic extraction: classification system of Houston 1994; for half-life at 1 µM: male, CD-1, mouse, liver microsomes
Protocol: (§1) The metabolic assays were performed based on a previously described method. […] The final organic (ACN) concentration in the incubation tubes was 1%. […] Samples (50 μL) were removed at t = 0 (immediately after reaction start), 5, 10, 20, 30, and 60 min. Samples were added to microcentrifuge tubes containing 150 μL of ice-cold acetonitrile containing internal standard (clotrimazole; for […] = 10.0 ng/mL + 0.5% (v/v) formic acid; for 1 and 2 = 2.0 ng/mL + 0.5% (v/v) formic acid; for VPL = 20.0 ng/mL + 0.1% (v/v) formic acid). Tubes were centrifuged (13,000× g, 5 min), and ~135 μL of supernatant transferred to polypropylene 96-well plates for analysis.
(§2) Chromatographic separation was achieved using a biphenyl column [Kinetix, 100 mm × 4.6 mm, 2.6 μm; Phenomenex (Sydney, Australia)], coupled with a gradient elution with mobile phases containing acetonitrile/H2O/0.5% formic acid. Analysis was conducted in positive ion multiple reaction monitoring (MRM) mode with argon as the collision gas. Optimum MS/MS conditions were established prior to incubations by direct infusion of individual solutions of 1, 2, and 3 into the LC-MS/MS. To ensure adequate sensitivity of analysis, multiple mass transitions were summed for all three test compounds.
(§3) LN % remaining vs. time data for each data set were fitted to an exponential decay function to determine the first-order rate constant (k) for substrate depletion. For Equations (5)–(7), scaling parameters used were described elsewhere.

[2] = Stability in liver microsomes; assay type: in vitro ADME, human; settings: for half-life at 1 µM: both sexes, human, liver microsomes
Protocol: as §1, §2, §3

[3] = test system: efflux pumps of P. aeruginosa; test: Ethidium bromide efflux assay; assay type: cell-based, Pseudomonas aeruginosa; settings: for efflux pump inhibition (intracellular EtBr accumulation): 60 min, compound 3 at 53.1 and 106.2 µg/mL
Source text: We performed the ethidium bromide (EtBr) efflux assay to assess the ability of test compounds to inhibit efflux pumps of P. aeruginosa. The DNA-intercalating dye EtBr is a common substrate of the resistance-nodulation-cell division (RND) family. The dye only fluoresces when bound to DNA in the cytoplasm. The disruption of efflux pumps such as the RND pump AcrB enhances the accumulation of the substrate within the cells over time until it reaches a steady state. (Figure 5C).
To investigate the efflux pump-inhibiting activity of test compounds on wild-type PAO1, an efflux assay using ethidium bromide (EtBr) as a substrate was performed as previously described. An overnight culture of PAO1 in LB broth was incubated in a shaker at 37 °C until it reached an OD600 of 0.5. The bacterial cells were washed with phosphate buffered saline (PBS) and centrifuged, and the pellet was resuspended in PBS. Test compounds, 5 µL, were added to the flat-bottomed, black 96-well-plate followed by addition of 90 µL of the bacterial suspension. EtBr at a non-toxic concentration (5 µL, 2 µg/mL) was added before the plates were read. The fluorescence reading was recorded at an excitation of 530 nm and emission of 590 nm every min for 60 min using a BioTek Synergy H1 Hybrid microplate reader. Carbonyl cyanide m-chlorophenyl hydrazone (CCCP), a chemical inhibitor of efflux pumps, was used as the positive control, and DMSO (1–2%) was used as the vehicle control, as compounds were dissolved in DMSO. Untreated cells were used as the negative control.

[4] = test system: PAO1ΔpslA (Psl deletion mutant); test: Biofilm inhibition assay (OD600 growth and resazurin biofilm viability); assay type: cell-based, Pseudomonas aeruginosa
Protocol: Figure 2 Biofilm assays to identify compounds that prevent biofilm formation. Biofilm inhibition assay. P. aeruginosa cultures were seeded into 384-well plates after dispensing compounds and antibiotics. The plates were incubated for 24 h at 37 °C followed by recording bacterial growth (OD600) and measuring the viability of biofilm bacteria using resazurin.
The overnight cultures at 37 °C in LB medium were washed once with sterile saline 0.9% (w/v) and adjusted to an OD600 of 0.05, and 1% inoculum was transferred into a fresh LB medium. Following incubation at 37 °C, 200 rpm for 6–6.5 h to reach the mid-log phase, the cells were washed once with sterile saline 0.9% and diluted to an OD600 of 0.01. Then, 45 µL aliquots were dispensed into 384-well plates (Greiner Bio-One, Kremsmünster, Austria, catalog no. 781091). In biofilm inhibition assays, test compounds (5 µL) were loaded prior to the addition of bacteria. The plates were incubated for 24 h at 37 °C in static conditions. The effects of compounds on bacterial growth and viability of biofilm bacteria were determined by the OD600 and resazurin metabolic assay, respectively. The final concentrations of DMSO in the assays were 1–2%. The negative controls or untreated cultures consisted of inoculum and different concentrations of DMSO. Antibiotic ciprofloxacin (0.25 µg/mL and 25 µg/mL) was used as positive controls. The initial OD600 and final OD600 were read before incubation at 37 °C and after 24 h incubation, respectively, followed by assessment of biofilm viability by resazurin metabolic assay. The experiments were carried out with three technical replicates and repeated at least twice. The growth inhibition was calculated as a function of the percentage of the total bacterial inhibition using Equation (1), where AB is the OD600 of LB medium, and AT0 and ATf are the OD600 recorded at inoculating time and at the end of the assay. (1) % Inhibition=100 × [ 1 − [OD600 (Asample Tf− Asample T0)−(AB Tf − AB T0)/OD600 (Anegative control Tf− Anegative control T0)−(AB Tf − AB T0)]]
Resazurin sodium salt (Sigma-Aldrich, St. Louis, MI, USA) was dissolved in Milli-Q water at 0.2% (w/v) and filter sterilized. The solution was stored at −20 °C in the dark. The assay was performed as previously described with modification. The cultures were withdrawn, and the plates were washed three times with sterile water using the plate washer (BioTek). To remove the remaining water in the wells, the plates were tapped with autoclaved paper towels. An amount of 50 µL of diluted RSZ solution in LB medium was added into each well, followed by incubation at 37 °C for 5–6 h. A microplate reader (BioTek Synergy 2) was used to measure the fluorescence intensity (excitation 530 nm, emission 590 nm). Data collected were determined as a function of fluorescence percentage using Equation (2), where FB is the fluorescence of the diluted RSZ solution in LB medium in the absence of P. aeruginosa cells. (2) % Inhibition=[(Fnegative control −FB )−(Fsample −FB )/(Fnegative control − FB )]×100

[5] = pH 7.4, no NRS, compound 1 between 20 and 60 min, compound 2 over 30 min, read-out: half-life of degradation, negative control (no NRS added)
[6] = pH 7.4, with NADPH regeneration system, 1.0 µM, 0.5 mg/mL microsomes, read-out: half-life of degradation

Question: Which results are given for `COc1c(Br)cc(/C=C/C(=O)NCCCNCCCCNCCCN)cc1Br` [Compound 1, ianthelliformisamine A]?
Answer: metabolic stability [1]: moderate degradation; hepatic extraction [1]: 0.48; level of hepatic extraction [1]: intermediate; half-life at 1 µM [1, 5]: ~45 min; half-life at 1 µM [1, 6]: 38.2 min; metabolic stability [2]: substantial instability; also recorded: significant instability; efflux pump inhibition (intracellular EtBr accumulation) [3]: comparable EtBr accumulation with untreated bacteria

Question: With `COc1c(Br)cc(/C=C/C(=O)NCCCNCCCCN)cc1Br` [Compound 2, ianthelliformisamine B] as the compound, how does the interaction with ciprofloxacin ([4]; ciprofloxacin 1/3 and 1/4 MIC) read?
Answer: no synergistic interaction

Question: What about the “effect on growth and biofilm formation” value ([4]; compound alone) of the same compound?
Answer: marginal effects

Question: And the metabolic stability [1]?
Answer: moderate degradation; also recorded: moderately degraded

Question: And the hepatic extraction [1]?
Answer: 0.42

Question: What about the “level of hepatic extraction” value [1] of the same compound?
Answer: intermediate

Question: And the half-life at 1 µM [1, 5]?
Answer: 90 min

Question: And the half-life at 1 µM [1, 6]?
Answer: 42.8 ± 7.6 min

Question: What about the metabolic stability [2] of the same compound?
Answer: moderate degradation; also recorded: moderately degraded

Question: What about the half-life at 1 µM ([2]; pH 7.4, no NRS, 30-min incubation, read-out: half-life of degradation, negative control (no NRS added)) of the same compound?
Answer: 103 min

Question: And the half-life at 1 µM [2, 6]?
Answer: 35.7 ± 2.1 min

Question: And the hepatic extraction ([2]; calculated from microsomal half-life, fu = 1 assumed)?
Answer: 0.61

Question: And the “level of hepatic extraction” value ([2]; classification system of Houston 1994)?
Answer: intermediate

Question: What about the “efflux pump inhibition (intracellular EtBr accumulation)” value [3] of the same compound?
Answer: comparable EtBr accumulation with untreated bacteria

Question: What does the source list for `COc1c(Br)cc(/C=C/C(=O)NCCCNCCCCNCCCNC(=O)/C=C/c2cc(Br)c(OC)c(Br)c2)cc1Br` [Compound 3, ianthelliformisamine C]?
Answer: synergistic interaction with ciprofloxacin, planktonic forms and biofilms ([4]; compound 53.1 µg/mL): negligible synergistic interactions; biofilm inhibition ([4]; compound 106.2 µg/mL + sub-lethal doses of ciprofloxacin): ~ 100%; killing of planktonic and biofilm populations ([4]; compound alone 106.2 µg/mL): completely killed; planktonic growth inhibition ([4]; compound alone 106.2 µg/mL): independently inhibited planktonic growth; metabolic stability [1]: metabolically stable; metabolic stability [2]: metabolically stable; level of intracellular EtBr accumulation relative to CCCP [3]: greater than that mediated by reference compound CCCP; efflux pump inhibition (intracellular EtBr accumulation) [3]: is an efflux pump inhibitor; efflux pump inhibition (intracellular EtBr accumulation) ([3]; listed as ianthelliformisamine C): inhibited the efflux pump
